Drawing on ChEMBL document CHEMBL4739718, “Substituted 5-cyclopropyl-1h-pyrazol-3-yl-amine derivatives as selective cdk12/13 inhibitors” (2020), this text covers Occ50 and IC50 for four compounds.

Bounds are passed on as bounds.

Assay [1] has as its target Cyclin-dependent kinase 12 (Homo sapiens) (UniProt Q9NYV4). The experiment in a line: Binding affinity to CDK12 in human Jurkat cells assessed as target occupancy level incubated for 2 hrs by measuring Bio-THZ531 bound protein level by spectrophotometry based plate based target engagement assay. Format: cell-based.
Assay [2] has as its target T1, Cyclin-dependent kinase 7 (Homo sapiens, UniProt P50613). The experiment in a line: Binding affinity to CDK7 in human Jurkat cells assessed as target occupancy level incubated for 2 hrs by measuring Bio-THZ531 bound protein level by spectrophotometry based plate based target engagement assay. It is filed as cell-based.
For assay [3], the target named is T1, Cyclin-dependent kinase 7. The experiment in a line: Inhibition of CDK7 (unknown origin) assessed as reduction in ATP-dependent phosphorylation of ULight-myelin basic protein substrate peptide incubated for 60 mins by LANCE TR-FRET assay. A general note: In TR-FRET formats the signal depends on donor and acceptor labels being close together.

As usually defined, the IC50 is the concentration that inhibits the measured activity by half.

T1 sequence (P50613 whole entry): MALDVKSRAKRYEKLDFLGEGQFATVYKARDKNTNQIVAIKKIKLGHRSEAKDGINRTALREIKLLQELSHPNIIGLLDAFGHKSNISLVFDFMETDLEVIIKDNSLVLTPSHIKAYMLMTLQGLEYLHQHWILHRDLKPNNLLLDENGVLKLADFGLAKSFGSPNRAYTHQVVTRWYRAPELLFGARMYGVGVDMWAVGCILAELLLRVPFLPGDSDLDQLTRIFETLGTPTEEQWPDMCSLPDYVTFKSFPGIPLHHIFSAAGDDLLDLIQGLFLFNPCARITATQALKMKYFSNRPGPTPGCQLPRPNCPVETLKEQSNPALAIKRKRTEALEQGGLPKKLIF
Sequence of Cyclin-dependent kinase 12 (Homo sapiens) (Q9NYV4 whole entry, looked up): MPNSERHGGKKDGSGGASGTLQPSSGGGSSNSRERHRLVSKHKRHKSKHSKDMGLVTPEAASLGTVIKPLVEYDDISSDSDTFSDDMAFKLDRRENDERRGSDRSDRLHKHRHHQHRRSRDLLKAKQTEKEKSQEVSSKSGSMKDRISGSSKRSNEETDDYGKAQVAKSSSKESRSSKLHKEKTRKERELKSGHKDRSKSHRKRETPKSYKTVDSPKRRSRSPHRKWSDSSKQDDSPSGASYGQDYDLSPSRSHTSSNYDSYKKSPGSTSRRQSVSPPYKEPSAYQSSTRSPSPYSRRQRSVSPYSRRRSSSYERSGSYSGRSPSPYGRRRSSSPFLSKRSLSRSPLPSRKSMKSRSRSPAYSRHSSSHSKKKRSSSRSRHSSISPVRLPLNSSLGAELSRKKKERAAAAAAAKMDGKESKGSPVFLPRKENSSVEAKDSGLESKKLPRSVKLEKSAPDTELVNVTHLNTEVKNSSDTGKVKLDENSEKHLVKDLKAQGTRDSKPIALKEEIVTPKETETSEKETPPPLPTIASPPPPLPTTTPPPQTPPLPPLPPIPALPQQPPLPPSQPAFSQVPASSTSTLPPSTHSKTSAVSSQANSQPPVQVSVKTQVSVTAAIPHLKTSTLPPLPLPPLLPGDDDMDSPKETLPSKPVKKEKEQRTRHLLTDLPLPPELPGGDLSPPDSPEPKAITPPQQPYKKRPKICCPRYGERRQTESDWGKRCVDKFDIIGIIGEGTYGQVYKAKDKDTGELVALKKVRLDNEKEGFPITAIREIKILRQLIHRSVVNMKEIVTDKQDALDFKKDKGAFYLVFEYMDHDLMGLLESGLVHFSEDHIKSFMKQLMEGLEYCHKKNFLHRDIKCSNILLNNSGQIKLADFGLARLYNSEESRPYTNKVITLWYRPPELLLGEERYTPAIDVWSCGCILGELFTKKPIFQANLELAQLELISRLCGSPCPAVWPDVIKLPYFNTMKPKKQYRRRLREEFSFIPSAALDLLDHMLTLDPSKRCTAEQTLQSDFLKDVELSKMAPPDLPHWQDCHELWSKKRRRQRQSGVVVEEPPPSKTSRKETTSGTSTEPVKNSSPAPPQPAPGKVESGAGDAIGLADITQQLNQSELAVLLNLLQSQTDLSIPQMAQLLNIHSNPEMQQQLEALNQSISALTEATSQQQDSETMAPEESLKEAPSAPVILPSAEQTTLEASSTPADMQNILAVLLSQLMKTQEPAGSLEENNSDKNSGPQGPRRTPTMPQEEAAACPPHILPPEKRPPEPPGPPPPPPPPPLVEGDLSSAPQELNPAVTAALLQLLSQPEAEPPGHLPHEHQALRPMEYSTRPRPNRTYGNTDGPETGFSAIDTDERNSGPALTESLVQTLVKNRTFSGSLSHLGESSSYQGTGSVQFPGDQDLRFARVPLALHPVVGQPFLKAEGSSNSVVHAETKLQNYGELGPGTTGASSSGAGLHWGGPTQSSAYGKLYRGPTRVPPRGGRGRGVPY

With `C=CC(=O)NCc1ccc(-c2ccc([C@H](C)C(=O)Nc3cc(C4CC4)[nH]n3)cc2)cn1`, the Occ50 in assay [1] was 0.022 µM; in assay [2], > 2 µM. Taken in the same sequence, the figures for `C=CC(=O)NCc1ccc(-c2ccc(C(C)C(=O)Nc3cc(C4CC4)[nH]n3)cc2)cn1` (stereo unspecified) were 0.23 µM and 0.61 µM. Regarding `CC(C(=O)Nc1cc(C2CC2)[nH]n1)c1ccc(-c2ccc(NC(=O)/C=C/CN3CCOCC3)cc2)cc1` (stereo in doubt; 12), the IC50 in assay [3] is > 10 µM. For the compound `C=CC(=O)NCc1ccc(-c2ccc(C(C)C(=O)Nc3cc(C4CC4)[nH]n3)cn2)cn1` (stereo unspecified), the IC50 in assay [3] was > 10 µM.
